Source: ChEMBL document CHEMBL4145494, “Synthesis and biological evaluation of aurora kinases inhibitors based on N-trisubstituted pyrimidine scaffold” (Eur J Med Chem, 2018)
Each block holds one compound with its values, some of them ahead of it. The source made the active and inactive calls. The calls are words filed in the database; no cut-off is given here.

How the values were obtained:
U-937 [1] = assay: Induction of apoptosis in human U937 cells assessed as live cells at 0.3 uM after 48 hrs by Annexin-V/propidium iodide staining based flow cytometry (reference value: 94.6%); format: functional
U-937 [2] = assay: Antitumor activity against human U937 cells xenografted in nude mouse assessed as tumor weight at 50 mg/kg, ip administered once daily for 9 days (reference value: 1.64 +/- 0.22 g); format: functional
U-937 [3] = assay: Induction of apoptosis in human U937 cells assessed as necrotic cells at 0.3 uM after 48 hrs by Annexin-V/propidium iodide staining based flow cytometry (reference value: 1.13%); format: functional
HCT-116 = assay: Antiproliferative activity against human HCT116 cells after 48 hrs by CCK8 assay; format: functional, cell-based; conditions: HCT-116, 48 h
U-937 [4] = assay: Induction of apoptosis in human U937 cells assessed as necrotic cells at 1.2 uM after 48 hrs by Annexin-V/propidium iodide staining based flow cytometry (reference value: 1.13%); format: functional
Aurora kinase A = molecular target: T1, Aurora kinase A (Homo sapiens, UniProt O14965); assay: Inhibition of AURKA (unknown origin) using FAM-labeled peptide substrate preincubated for 10 mins followed by substrate addition measured after 60 mins by caliper assay
T1 sequence (O14965 whole entry): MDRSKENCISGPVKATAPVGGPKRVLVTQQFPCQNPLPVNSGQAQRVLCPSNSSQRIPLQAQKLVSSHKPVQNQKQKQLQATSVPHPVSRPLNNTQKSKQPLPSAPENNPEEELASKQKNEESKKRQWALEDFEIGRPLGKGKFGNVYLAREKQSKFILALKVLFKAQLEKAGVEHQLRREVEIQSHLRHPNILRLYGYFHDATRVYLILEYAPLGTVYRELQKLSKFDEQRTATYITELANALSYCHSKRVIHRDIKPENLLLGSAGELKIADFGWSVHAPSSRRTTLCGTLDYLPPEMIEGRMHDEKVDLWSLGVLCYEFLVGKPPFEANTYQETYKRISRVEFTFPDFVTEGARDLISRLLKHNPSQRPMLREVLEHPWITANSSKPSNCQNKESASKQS

U-937 [5] = assay: Induction of apoptosis in human U937 cells assessed as early apoptotic cells at 0.6 uM after 48 hrs by Annexin-V/propidium iodide staining based flow cytometry (reference value: 2.38%); format: functional
MDA-MB-231 [6] = assay: Antiproliferative activity against human MDA-MB-231 cells after 48 hrs by CCK8 assay; format: functional, cell-based; conditions: MDA-MB-231, 48 h
U-937 [7] = assay: Induction of apoptosis in human U937 cells assessed as early apoptotic cells at 1.2 uM after 48 hrs by Annexin-V/propidium iodide staining based flow cytometry (reference value: 2.38%); format: functional
MDA-MB-231 [8] = assay: Inhibition of alpha-tubulin in human MDA-MB-231 cells assessed as abolishment of regular location of protein at 0.5 uM after 48 hrs by DAPI staining based immunofluorescence assay; format: cell-based
MCF7 = assay: Antiproliferative activity against human MCF7 cells after 48 hrs by CCK8 assay; format: functional, cell-based; conditions: MCF7, 48 h
U-937 [9] = assay: Induction of apoptosis in human U937 cells assessed as early apoptotic cells at 0.3 uM after 48 hrs by Annexin-V/propidium iodide staining based flow cytometry (reference value: 2.38%); format: functional
U-937 [10] = assay: Antitumor activity against human U937 cells xenografted in nude mouse assessed as tumor size at 100 mg/kg, ip administered once daily for 9 days (reference value: 1069.16 +/- 327.22 mm3); format: functional
HL-60 = assay: Antiproliferative activity against human HL60 cells after 48 hrs by CCK8 assay; format: functional, cell-based; conditions: HL-60, 48 h
K562 [11] = assay: Cell cycle arrest in human K562 cells assessed as accumulation at G2/M phase at 0.1 to 1 uM after 24 hrs by propidium iodide staining based flow cytometry relative to control; format: functional
U-937 [12] = assay: Induction of apoptosis in human U937 cells assessed as late apoptotic cells at 0.6 uM after 48 hrs by Annexin-V/propidium iodide staining based flow cytometry (reference value: 1.93%); format: functional
U-937 [13] = assay: Induction of apoptosis in human U937 cells assessed as late apoptotic cells at 1.2 uM after 48 hrs by Annexin-V/propidium iodide staining based flow cytometry (reference value: 1.93%); format: functional
[14] = Stability of the compound up to 6 months at 40 +/- 2 degC and 75 +/- 5% relative humidity by HPLC analysis; format: physicochemical
U-937 [15] = assay: Antitumor activity against human U937 cells xenografted in nude mouse assessed as tumor size at 50 mg/kg, ip administered once daily for 9 days (reference value: 1069.16 +/- 327.22 mm3); format: functional
Mus musculus = assay: Toxicity in nude mouse xenografted with human U937 cells assessed as body weight change at 50 to 100 mg/kg, ip administered once daily for 9 days; format: organism-based; conditions: in vivo, 216 h
NB-4 [16] = assay: Cell cycle arrest in human NB4 cells assessed as accumulation at G2/M phase at 0.1 to 1 uM after 24 hrs by propidium iodide staining based flow cytometry relative to control; format: functional
MDA-MB-231 [17] = assay: Induction of aberrant spindle formation with tripolar and tetrapolar occurrence in human MDA-MB-231 cells at 1 uM after 48 hrs by DAPI staining based immunofluorescence assay; format: functional, cell-based
U-937 [18] = assay: Cell cycle arrest in human U937 cells assessed as decrease in 2N DNA content at 0.1 to 1 uM after 24 hrs by propidium iodide staining based flow cytometry; format: functional
NB-4 [19] = assay: Antiproliferative activity against human NB4 cells after 48 hrs by CCK8 assay; format: functional, cell-based; conditions: NB-4, 48 h
K562 [20] = assay: Antiproliferative activity against human K562 cells after 48 hrs by CCK8 assay; format: functional, cell-based; conditions: K562, 48 h
U-937 [21] = assay: Induction of apoptosis in human U937 cells assessed as late apoptotic cells at 0.3 uM after 48 hrs by Annexin-V/propidium iodide staining based flow cytometry (reference value: 1.93%); format: functional
HeLa = assay: Antiproliferative activity against human HeLa cells after 48 hrs by CCK8 assay; format: functional, cell-based
U-937 [22] = assay: Induction of apoptosis in human U937 cells assessed as live cells at 0.6 uM after 48 hrs by Annexin-V/propidium iodide staining based flow cytometry (reference value: 94.6%); format: functional
U-937 [23] = assay: Antiproliferative activity against human U937 cells after 48 hrs by CCK8 assay; format: functional, cell-based; conditions: U-937, 48 h
U-937 [24] = assay: Antitumor activity against human U937 cells xenografted in nude mouse assessed as tumor weight at 100 mg/kg, ip administered once daily for 9 days (reference value: 1.64 +/- 0.22 g); format: functional
NB-4 [25] = assay: Cell cycle arrest in human NB4 cells assessed as decrease in 2N DNA content at 0.1 to 1 uM after 24 hrs by propidium iodide staining based flow cytometry; format: functional
A-431 = assay: Antiproliferative activity against human A431 cells after 48 hrs by CCK8 assay; format: functional, cell-based; conditions: A-431, 48 h
Aurora kinase B = Aurora kinase B (Homo sapiens, UniProt Q96GD4); assay: Inhibition of AURKB (unknown origin) using FAM-labeled peptide substrate preincubated for 10 mins followed by substrate addition measured after 60 mins by caliper assay
Sequence of Aurora kinase B (Q96GD4 whole entry): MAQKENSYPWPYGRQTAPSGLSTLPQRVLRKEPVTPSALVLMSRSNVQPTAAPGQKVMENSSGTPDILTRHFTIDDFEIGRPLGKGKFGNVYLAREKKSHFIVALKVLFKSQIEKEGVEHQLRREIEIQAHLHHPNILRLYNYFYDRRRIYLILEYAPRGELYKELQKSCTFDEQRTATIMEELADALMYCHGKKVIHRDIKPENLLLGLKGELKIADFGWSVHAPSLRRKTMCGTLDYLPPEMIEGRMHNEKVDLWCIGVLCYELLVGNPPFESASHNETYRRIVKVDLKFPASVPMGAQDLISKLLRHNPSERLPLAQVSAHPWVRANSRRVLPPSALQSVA

MDA-MB-231 [26] = assay: Induction of chromosome alignment defects in human MDA-MB-231 cells at 1 uM after 48 hrs by DAPI staining based immunofluorescence assay; format: functional, cell-based
U-937 [27] = assay: Cell cycle arrest in human U937 cells assessed as accumulation at G2/M phase at 0.1 to 1 uM after 24 hrs by propidium iodide staining based flow cytometry relative to control; format: functional
U-937 [28] = assay: Induction of apoptosis in human U937 cells assessed as live cells at 1.2 uM after 48 hrs by Annexin-V/propidium iodide staining based flow cytometry (reference value: 94.6%); format: functional
K562 [29] = assay: Cell cycle arrest in human K562 cells assessed as decrease in 2N DNA content at 0.1 to 1 uM after 24 hrs by propidium iodide staining based flow cytometry; format: functional
U-937 [30] = assay: Induction of apoptosis in human U937 cells assessed as necrotic cells at 0.6 uM after 48 hrs by Annexin-V/propidium iodide staining based flow cytometry (reference value: 1.13%); format: functional

Compound: COc1ccc(Nc2nc(Nc3cc(C)[nH]n3)cc(N3CCN(C)CC3)n2)cc1OC
- IC50 (HCT-116): 0.777 µM
- IC50 (Aurora kinase A): 0.038 µM
- IC50 (MDA-MB-231 [6]): 0.459 µM
- IC50 (MCF7): 6.54 µM
- IC50 (K562 [20]): 0.462 µM
- IC50 (HeLa): 0.678 µM
- IC50 (U-937 [23]): 0.15 µM
- IC50 (A-431): 0.778 µM
- IC50 (Aurora kinase B): 0.452 µM

Compound: COC(=O)c1ccc(Nc2nc(Nc3cc(C)[nH]n3)cc(N3CCN(C)CC3)n2)cc1OC
- IC50 (HCT-116): 1.14 µM
- IC50 (Aurora kinase A): 0.067 µM
- IC50 (MDA-MB-231 [6]): 0.872 µM
- IC50 (MCF7): 10.3 µM
- IC50 (K562 [20]): 0.762 µM
- IC50 (HeLa): 0.872 µM
- IC50 (U-937 [23]): 0.545 µM
- IC50 (A-431): 1.22 µM
- IC50 (Aurora kinase B): 0.442 µM

Compound: Cc1cc(Nc2cc(N3CCN(C)CC3)nc(Nc3ccc4c(c3)OCO4)n2)n[nH]1
- IC50 (HCT-116): 0.719 µM
- IC50 (Aurora kinase A): 0.02 µM
- IC50 (MDA-MB-231 [6]): 0.206 µM
- IC50 (MCF7): 0.911 µM
- IC50 (K562 [20]): 0.233 µM
- IC50 (HeLa): 0.457 µM
- IC50 (U-937 [23]): 0.0584 µM
- IC50 (A-431): 0.419 µM
- IC50 (Aurora kinase B): 0.0917 µM

These reach a lower IC50 (HCT-116). Values come first.

- IC50 (HCT-116): 0.18 µM
- IC50 (Aurora kinase A): 0.0071 µM
- IC50 (MDA-MB-231 [6]): 0.0955 µM
- IC50 (MCF7): 0.213 µM
- IC50 (HL-60): 0.034 µM
- Stability [14]: Stable
- IC50 (K562 [20]): 0.0952 µM
- IC50 (HeLa): 0.277 µM
- IC50 (U-937 [23]): 0.0122 µM
- IC50 (A-431): 0.0809 µM
- IC50 (Aurora kinase B): 0.0257 µM
Compound: Cc1cc(Nc2cc(N3CCN(C)CC3)nc(Nc3ccc(F)c(Cl)c3)n2)n[nH]1
- Activity (U-937 [1]): 88.5%
- Activity (U-937 [2]): 0.93 g
- Activity (U-937 [3]): 3.01%
- Activity (U-937 [4]): 4.34%
- Activity (U-937 [5]): 2.11%
- Activity (U-937 [7]): 2.22%
- inhibition (MDA-MB-231 [8]): Active
- Activity (U-937 [9]): 1.76%
- Activity (U-937 [10]): 528.88 mm3
- Activity (K562 [11]): >90%
- Activity (U-937 [12]): 6.95%
- Activity (U-937 [13]): 7.15%
- Activity (U-937 [15]): 753.6 mm3
- Activity (Mus musculus): Non-Toxic
- Activity (NB-4 [16]): >90%
- Activity (MDA-MB-231 [17]): Active
- Activity (U-937 [18]): Active
- IC50 (NB-4 [19]): 0.5 µM
- Activity (U-937 [21]): 6.76%
- Activity (U-937 [22]): 67.8%
- Activity (U-937 [24]): 0.54 g
- Activity (NB-4 [25]): Active
- Activity (MDA-MB-231 [26]): Active
- Activity (U-937 [27]): >90%
- Activity (U-937 [28]): 86.3%
- Activity (K562 [29]): Active
- Activity (U-937 [30]): 3.12%

- IC50 (HCT-116): 0.339 µM
- IC50 (Aurora kinase A): 0.017 µM
- IC50 (MDA-MB-231 [6]): 0.16 µM
- IC50 (MCF7): 1.29 µM
- IC50 (K562 [20]): 0.195 µM
- IC50 (HeLa): 0.438 µM
- IC50 (U-937 [23]): 0.0299 µM
- IC50 (A-431): 0.177 µM
- IC50 (Aurora kinase B): 0.0892 µM
Compound: Cc1cc(Nc2cc(N3CCN(C)CC3)nc(Nc3ccc(F)c(F)c3)n2)n[nH]1

- IC50 (HCT-116): 0.252 µM
- IC50 (Aurora kinase A): 0.031 µM
- IC50 (MDA-MB-231 [6]): 0.155 µM
- IC50 (MCF7): 0.818 µM
- IC50 (K562 [20]): 0.218 µM
- IC50 (HeLa): 0.374 µM
- IC50 (U-937 [23]): 0.0248 µM
- IC50 (A-431): 0.136 µM
- IC50 (Aurora kinase B): 0.101 µM
Compound: Cc1cc(Nc2cc(N3CCN(C)CC3)nc(Nc3ccc(Cl)c(F)c3)n2)n[nH]1
